Where two headings read alike, the source gives them in different places. Marks after values point to notes of the source that are not given here.
What was measured:
[1] = Pharmacokinetics study in healthy cats (plasma curcumin by HPLC); type: in vivo; conditions: for Curcumin content in plasma: any interval, not detected, below detection limit of HPLC; for Tmax / Cmax / AUC(0-t): po, 250 mg/kg; for Cmax: plasma curcumin
Method: Single-dosing (s.i.d.) and two-dosing (b.i.d.) oral administration of curcumin and Cur-CS nanoparticle pharmacokinetics study spanning 24 h was performed in the cats, which weighed 1.5–3.5 kg. The cats were randomly divided into four groups, and each group contained four cats. […] Prior to and 0.5, 1, 2, 3, 4, 8, 12, and 24 h after the treatments, 1 mL blood was harvested via jugular, cephalic, or saphenous venipuncture into lithium heparinized tubes (BD, Franklin Lakes, NJ, USA). The plasma was immediately centrifuged at 500 g for 5 min at 4°C and stored at -80°C until use. The cats then underwent a 2-week washout and rest period prior to testing on the following treatment and series of blood collection. All the cats were neutered at the end of the study and adopted by the public. Curcumin was extracted from plasma using the polar solvent extraction method. Ethyl acetate (500 μL) was added to 200 μL plasma and vortexed for 10 min. The samples were centrifuged at 4000 g at 10°C for 15 min, and the upper ethyl acetate layer was transferred to a new 1.5 mL tube. The extraction was repeated twice and performed under dim light conditions to prevent the degradation of curcumin. […] An aliquot of a 20 μL sample was analysed for quantifying the curcumin in the plasma by HPLC. The curcumin was quantified using a Series 1200 Quaternary HPLC system (Agilent Technologies, Santa Clara, CA, USA) with an UV-Vis detector equipped with an Eclipse Plus C18 column (Agilent Technologies). The HPLC system was first optimised as previously described and further adjusted to suitable settings. […] The flow rate of the mobile phase was maintained at 1 mL/min with an injection volume of 20 μL sample, where the column temperature was maintained at 35°C. The detector signal of the HPLC system for curcumin detection was adjusted to 425 nm. A 6-point calibration curve was prepared by serial dilution of 1 mg/mL curcumin stock solution in methanol. Curcumin concentrations (ng/mL) in the plasma were calculated based on the calibration curve. Time to reach maximum plasma concentration (Tmax) and maximum plasma concentration (Cmax) values were obtained directly from the measured data. The area under the curve from 0 to t (AUC0-t) was calculated using the linear-log trapezoidal method.

[2] = system: FIPV-infected cells; assay: Feline-specific magnetic bead-based multiplex immunoassay; type: cell-based; conditions: 20 μM
Method: The culture supernatant was centrifuged and used for the bead-based multiplex immunoassay, while the attached cells were trypsinised and collected for the cellular proinflammatory cytokine mRNA expression study.
Nineteen immune-related proteins including cytokines, chemokines, growth factors, and other immunologically active proteins were measured using a commercially available feline-specific magnetic bead-based multiplex immunoassay. The Feline Cytokine/Chemokine Magnetic Bead Panel Premixed (FCYTOMAG-20K-PMX; EMD Millipore, Billerica, MA, USA) was purchased and used according to the manufacturer's recommendation. Quality control samples, standards, and sets of culture sample were run on plates in duplicate. Prior to measurement, the culture samples were concentrated using Concentrator 5301 (Eppendorf, Hamburg, Germany). The plates were evaluated using MAGPIX® (Luminex, Austin, TX, USA); subsequently, the results were analysed using MILLIPLEX Analyst v.5.1 (EMD Millipore, Billerica, MA, USA).

[3] = Cytotoxicity assay (MTT); type: cell-based, feline; conditions: cat
Method: (§1) CrFK cells at a density of 2 × 10^4 were incubated in 96-well culture plates for 24 h at 37°C. Then, the cells were washed with PBS. […] A colorimetric MTT assay was performed. Briefly, 20 μL 5 mg/mL MTT solution was added to each well and incubated for 2 h at 37°C. Then, 170 μL solution was removed from each well; subsequently, 100 μL DMSO was added to dissolve the formazan crystals. The plate was then incubated for 1 h before optical density (OD) measurement at 570 nm using a plate reader (BioTek EL800, BioTek, Winooski, VT, USA).
(§2) The relative cell viability (%) of CrFK cells after treatment was calculated using the formula (OD570 (treated cells)/OD570 (control cells)) × 100. The median cytotoxic concentration (CC50) is the concentration that reduces the absorbance of treated cells to 50% with respect to the cell controls. The CC50 of the compounds was calculated by regression analysis in SPSS software version 22.0 (IBM, Chicago, IL, USA).

[4] = system: CrFK cells; assay: Cytotoxicity assay (MTT); type: cell-based, feline; conditions: CrFK cells; MTT; tested 1 to 250 μg/mL
Method: as §1, §2

[5] = system: CrFK cells; assay: Cellular uptake study by fluorescence microscopy; type: cell-based, feline; conditions: 20 μM, examined at 1, 3 and 6 h
Method: The cellular uptake of curcumin and the Cur-CS nanoparticles by CrFK cells was examined using the fluorescence method. […] The plates were incubated at 37°C in an incubator with 5% CO2 for 24 h. […] At these intervals, the cells were rinsed three times with PBS. […] The dried coverslips were mounted on a glass slide, and images were captured by an Olympus IX81 inverted fluorescence microscope (Olympus, Japan) under a 535–600 nm filter.

[6] = plasma, oral 250 mg/kg, single dosing (s.i.d.)

COc1cc(/C=C/C(=O)CC(=O)/C=C/c2ccc(O)c(OC)c2)ccc1O [Curcumin]
Curcumin content in plasma ([1]; 50 mg/kg): < 25 ng/mL
Curcumin content in plasma ([1]; 100 mg/kg): < 25 ng/mL
Tmax ([1]; cat, plasma, oral 250 mg/kg, b.i.d. study, as stated in the text (similar to s.i.d. profile)): 2 to 4 h
AUC0-12 as share of AUC0-∞ ([1]; oral 250 mg/kg): more than 80%
AUC(0-inf) [1, 6]: 1370 ± 112 ng·h/mL
Tmax [1, 6]: 3 h
Cmax [1, 6]: 220 ± 18.6 ng/mL
AUC(0-t) ([1]; plasma, oral 250 mg/kg, single dosing (s.i.d.), read-out: AUC0-12): 1140 ± 137 ng·h/mL
Cmax ([1]; plasma, oral 250 mg/kg, two dosing (b.i.d.) 12 h apart): 241 ± 27.1 ng/mL
Tmax ([1]; plasma, oral 250 mg/kg, two dosing (b.i.d.), after the second dose): 4 h
AUC(0-t) ([1]; plasma, oral 250 mg/kg, two dosing (b.i.d.), read-out: AUC0-12): 1510 ± 72.4 ng·h/mL
AUC(0-t) ([1]; plasma, oral 250 mg/kg, two dosing (b.i.d.), read-out: AUC0-24): 3100 ± 176 ng·h/mL
TNFα concentration ([2]; 24 h, infected cells untreated 38.13 ± 0.00): 37.40 ± 1.04^b pg/mL
IL-18 concentration ([2]; 24 h, infected cells untreated 60.62 ± 3.50): 47.92 ± 1.73^ab pg/mL
KC concentration ([2]; 24 h, infected cells untreated 80.76 ± 3.71): 58.52 ± 15.92^bc pg/mL
SDF-1 concentration ([2]; 24 h, infected cells untreated 161.3 ± 7.1): 163.5 ± 3.1^b pg/mL
PDGF-BB concentration ([2]; 24 h, infected cells untreated 445.6 ± 18.7): 446.0 ± 0.0^b pg/mL
RANTES concentration ([2]; 24 h, infected cells untreated 868.6 ± 62.1): 746.7 ± 18.3^c pg/mL
MCP-1 concentration ([2]; 24 h, infected cells untreated 934.8 ± 0.0): 934.8 ± 0.0^c pg/mL
IL-8 concentration ([2]; 24 h, infected cells untreated 2078.0 ± 138.6): 1509.5 ± 16.3^c pg/mL
TNFα concentration ([2]; 48 h, infected cells untreated 46.83 ± 6.11): 35.18 ± 2.09^a pg/mL
IL-6 concentration ([2]; 48 h, infected cells untreated 108.06 ± 4.85): 54.75 ± 6.34^∗ pg/mL
SDF-1 concentration ([2]; 48 h, infected cells untreated 158.2 ± 0.9): 84.2 ± 2.9^a pg/mL
KC concentration ([2]; 48 h, infected cells untreated 266.1 ± 35.2): 186.4 ± 14.2^c pg/mL
PDGF-BB concentration ([2]; 48 h, infected cells untreated 440.5 ± 43.1): 354.2 ± 30.0^a pg/mL
MCP-1 concentration ([2]; 48 h, infected cells untreated 934.2 ± 57.9): 735.5 ± 34.2^a pg/mL
IL-8 concentration ([2]; 48 h, infected cells untreated 1660.0 ± 196.6): 1074.5 ± 9.2^b pg/mL
RANTES concentration ([2]; 48 h, infected cells untreated 2317.0 ± 355.0): 618.6 ± 70.8^b pg/mL
CC50 at 24 h [3]: 69.9 µM
CC50 at 48 h [3]: 59.1 µM
CC50 at 72 h [3]: 35.5 µM
Concentration tolerated by the cells without cytotoxic effect [4]: 15000 ng/mL
Cellular uptake: time at which green fluorescence was first observed [5]: 3 h

From paper PMC7262662 (BioMed Research International, 2020)
